The NIST ThermoML archive (doi:10.1021/je700260f)

Conditions: Liquid, Vibrating tube method

FC(C(F)(F)F)C(F)(F)F [1,1,1,2,3,3,3-heptafluoropropane]
Conditions	mass density [kg/m3]
313.14 K, 30999 kPa	1493.6
313.14 K, 31036 kPa	1493.7
313.14 K, 31073 kPa	1494
313.14 K, 31110 kPa	1494.1
313.14 K, 31162 kPa	1494.3
313.14 K, 31193 kPa	1494.3
313.14 K, 31225 kPa	1494.5
313.14 K, 31252 kPa	1494.5
313.14 K, 31284 kPa	1494.6
313.14 K, 31324 kPa	1494.9
313.14 K, 31355 kPa	1494.8
313.14 K, 31397 kPa	1495.1
313.14 K, 31585 kPa	1495.6
313.14 K, 31617 kPa	1495.8
313.14 K, 31653 kPa	1495.9
313.14 K, 31696 kPa	1495.9
313.14 K, 31739 kPa	1496.2
313.14 K, 32132 kPa	1497.6
313.14 K, 32203 kPa	1497.7
313.14 K, 32369 kPa	1498.3
313.14 K, 32414 kPa	1498.5
313.14 K, 32447 kPa	1498.5
313.14 K, 32485 kPa	1498.7
313.14 K, 32523 kPa	1498.9
313.14 K, 32566 kPa	1499
313.14 K, 32604 kPa	1499
313.14 K, 32652 kPa	1499.4
313.14 K, 32736 kPa	1499.5
313.14 K, 32789 kPa	1499.7
313.14 K, 32821 kPa	1500
313.14 K, 32853 kPa	1500
313.14 K, 32900 kPa	1500.1
313.14 K, 32937 kPa	1500.2
313.14 K, 32975 kPa	1500.4
313.14 K, 33013 kPa	1500.5
313.14 K, 33094 kPa	1500.7
313.15 K, 714 kPa	1321.1
313.15 K, 733 kPa	1321.4
313.15 K, 755 kPa	1321.6
313.15 K, 777 kPa	1321.7
313.15 K, 797 kPa	1322.1
313.15 K, 819 kPa	1322.3
313.15 K, 838 kPa	1322.5
313.15 K, 871 kPa	1322.8
313.15 K, 891 kPa	1323.2
313.15 K, 917 kPa	1323.3
313.15 K, 934 kPa	1323.7
313.15 K, 963 kPa	1323.9
313.15 K, 985 kPa	1324
313.15 K, 1014 kPa	1324.4
313.15 K, 1036 kPa	1324.7
313.15 K, 1063 kPa	1325
313.15 K, 1087 kPa	1325.1
313.15 K, 1117 kPa	1325.7
313.15 K, 1146 kPa	1325.9
313.15 K, 1167 kPa	1326.1
313.15 K, 1191 kPa	1326.5
313.15 K, 1222 kPa	1326.6
313.15 K, 1249 kPa	1327
313.15 K, 1273 kPa	1327.4
313.15 K, 1296 kPa	1327.6
313.15 K, 1317 kPa	1327.7
313.15 K, 1338 kPa	1328
313.15 K, 1369 kPa	1328.3
313.15 K, 1396 kPa	1328.6
313.15 K, 1472 kPa	1329.4
313.15 K, 1496 kPa	1329.6
313.15 K, 1525 kPa	1330
313.15 K, 1550 kPa	1330.3
313.15 K, 1575 kPa	1330.4
313.15 K, 1597 kPa	1330.7
313.15 K, 1618 kPa	1331
313.15 K, 1653 kPa	1331.4
313.15 K, 1677 kPa	1331.6
313.15 K, 1698 kPa	1331.7
313.15 K, 1726 kPa	1332.2
313.15 K, 1744 kPa	1332.4
313.15 K, 1772 kPa	1332.6
313.15 K, 1793 kPa	1332.8
313.15 K, 1811 kPa	1333
313.15 K, 1836 kPa	1333.3
313.15 K, 1864 kPa	1333.4
313.15 K, 1893 kPa	1333.9
313.15 K, 1921 kPa	1334.1
313.15 K, 1946 kPa	1334.4
313.15 K, 1972 kPa	1334.7
313.15 K, 1998 kPa	1334.8
313.15 K, 2028 kPa	1335.1
313.15 K, 2049 kPa	1335.2
313.15 K, 2077 kPa	1335.6
313.15 K, 2102 kPa	1335.9
313.15 K, 2131 kPa	1336.1
313.15 K, 2153 kPa	1336.4
313.15 K, 2183 kPa	1336.7
313.15 K, 2208 kPa	1337
313.15 K, 2230 kPa	1337.2
313.15 K, 2692 kPa	1341.6
313.15 K, 2720 kPa	1342
313.15 K, 2751 kPa	1342.2
313.15 K, 2775 kPa	1342.4
313.15 K, 2803 kPa	1342.8
313.15 K, 2825 kPa	1342.9
313.15 K, 2851 kPa	1343.2
313.15 K, 2872 kPa	1343.4
313.15 K, 2905 kPa	1343.7
313.15 K, 2928 kPa	1343.9
313.15 K, 2959 kPa	1344.2
313.15 K, 2986 kPa	1344.4
313.15 K, 3012 kPa	1344.6
313.15 K, 3042 kPa	1345
313.15 K, 3072 kPa	1345.3
313.15 K, 3095 kPa	1345.4
313.15 K, 3298 kPa	1347.3
313.15 K, 3325 kPa	1347.5
313.15 K, 3356 kPa	1347.8
313.15 K, 3379 kPa	1348
313.15 K, 3402 kPa	1348.2
313.15 K, 3437 kPa	1348.6
313.15 K, 3464 kPa	1348.7
313.15 K, 3491 kPa	1349.1
313.15 K, 3518 kPa	1349.3
313.15 K, 3548 kPa	1349.5
313.15 K, 3572 kPa	1349.7
313.15 K, 3603 kPa	1350.1
313.15 K, 3625 kPa	1350.2
313.15 K, 3656 kPa	1350.5
313.15 K, 3679 kPa	1350.7
313.15 K, 3702 kPa	1350.9
313.15 K, 3737 kPa	1351.2
313.15 K, 3761 kPa	1351.4
313.15 K, 3794 kPa	1351.7
313.15 K, 3822 kPa	1352
313.15 K, 3858 kPa	1352.3
313.15 K, 3898 kPa	1352.7
313.15 K, 3926 kPa	1352.9
313.15 K, 3954 kPa	1353.2
313.15 K, 3982 kPa	1353.4
313.15 K, 4018 kPa	1353.5
313.15 K, 4043 kPa	1353.9
313.15 K, 4079 kPa	1354.3
313.15 K, 4110 kPa	1354.6
313.15 K, 4134 kPa	1354.8
313.15 K, 4167 kPa	1355
313.15 K, 4208 kPa	1355.4
313.15 K, 4360 kPa	1356.6
313.15 K, 4382 kPa	1356.8
313.15 K, 4410 kPa	1357
313.15 K, 4435 kPa	1357.3
313.15 K, 4463 kPa	1357.5
313.15 K, 4732 kPa	1359.7
313.15 K, 4757 kPa	1360
313.15 K, 4793 kPa	1360.1
313.15 K, 4811 kPa	1360.4
313.15 K, 4847 kPa	1360.6
313.15 K, 4872 kPa	1360.9
313.15 K, 4904 kPa	1361.1
313.15 K, 4929 kPa	1361.5
313.15 K, 4958 kPa	1361.6
313.15 K, 4976 kPa	1361.7
313.15 K, 5023 kPa	1362.3
313.15 K, 5048 kPa	1362.3
313.15 K, 5074 kPa	1362.5
313.15 K, 5096 kPa	1362.7
313.15 K, 5125 kPa	1363.1
313.15 K, 5148 kPa	1363.1
313.15 K, 5167 kPa	1363.4
313.15 K, 5200 kPa	1363.6
313.15 K, 5222 kPa	1363.9
313.15 K, 5259 kPa	1364
313.15 K, 5281 kPa	1364.2
313.15 K, 5308 kPa	1364.4
313.15 K, 5330 kPa	1364.6
313.15 K, 5357 kPa	1364.8
313.15 K, 5383 kPa	1365.1
313.15 K, 5409 kPa	1365.3
313.15 K, 5434 kPa	1365.4
313.15 K, 5457 kPa	1365.7
313.15 K, 5485 kPa	1365.9
313.15 K, 5508 kPa	1366.1
313.15 K, 5534 kPa	1366.3
313.15 K, 5560 kPa	1366.5
313.15 K, 5593 kPa	1366.7
313.15 K, 5616 kPa	1366.9
313.15 K, 5646 kPa	1367.1
313.15 K, 5672 kPa	1367.3
313.15 K, 5694 kPa	1367.6
313.15 K, 5717 kPa	1367.8
313.15 K, 5739 kPa	1367.9
313.15 K, 5766 kPa	1368
313.15 K, 5801 kPa	1368.3
313.15 K, 5828 kPa	1368.5
313.15 K, 5847 kPa	1368.7
313.15 K, 5870 kPa	1368.9
313.15 K, 5901 kPa	1369.2
313.15 K, 5932 kPa	1369.4
313.15 K, 5959 kPa	1369.7
313.15 K, 5987 kPa	1369.8
313.15 K, 6022 kPa	1370
313.15 K, 6049 kPa	1370.4
313.15 K, 6073 kPa	1370.5
313.15 K, 6096 kPa	1370.6
313.15 K, 6128 kPa	1370.8
313.15 K, 6163 kPa	1371.1
313.15 K, 6406 kPa	1372.9
313.15 K, 6434 kPa	1373
